Source: paper PMC10092294 (Biomaterials, 2023)
Each block holds one compound with its values, some of them ahead of it.

Legend:
human Topo I = target: T1, human Topo I (Homo sapiens, UniProt P11387); test: Topoisomerase I inhibition assay; format: biochemical; conditions: for Topo I inhibition: final drug concentration 100 μM
T1 sequence (P11387 1-765): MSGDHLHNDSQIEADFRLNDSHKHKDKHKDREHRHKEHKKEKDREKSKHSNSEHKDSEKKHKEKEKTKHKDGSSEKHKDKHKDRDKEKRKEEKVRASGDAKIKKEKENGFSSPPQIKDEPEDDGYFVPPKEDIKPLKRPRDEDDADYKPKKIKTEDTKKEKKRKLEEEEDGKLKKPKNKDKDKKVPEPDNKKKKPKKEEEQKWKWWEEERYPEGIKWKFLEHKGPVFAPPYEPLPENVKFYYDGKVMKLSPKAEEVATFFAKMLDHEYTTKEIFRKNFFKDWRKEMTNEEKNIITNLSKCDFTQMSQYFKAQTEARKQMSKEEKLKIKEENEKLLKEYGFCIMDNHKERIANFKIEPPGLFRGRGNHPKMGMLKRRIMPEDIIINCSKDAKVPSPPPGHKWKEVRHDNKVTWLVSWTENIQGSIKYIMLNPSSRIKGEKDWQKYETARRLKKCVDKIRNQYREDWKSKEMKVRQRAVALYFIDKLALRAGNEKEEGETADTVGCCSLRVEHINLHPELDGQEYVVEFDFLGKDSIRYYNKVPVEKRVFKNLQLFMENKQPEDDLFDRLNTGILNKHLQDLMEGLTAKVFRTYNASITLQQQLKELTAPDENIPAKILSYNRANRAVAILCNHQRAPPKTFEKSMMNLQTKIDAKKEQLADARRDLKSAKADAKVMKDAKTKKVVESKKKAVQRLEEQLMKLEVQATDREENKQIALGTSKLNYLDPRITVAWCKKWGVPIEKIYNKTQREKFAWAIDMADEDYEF

microtubule assembly = conditions: cited from earlier work
human Topo IIα = human Topo IIα (Homo sapiens, UniProt P11388); test: Topoisomerase II inhibition assay; format: biochemical; conditions: read-out: Topo II inhibition
[1] = system: four different endometrial cancer cell lines; format: cell-based, human; conditions: 72 hours
Hec50co LOFp53 cells [2] = test: Cell cycle assay; format: cell-based, human; conditions: 10 nM PTX alone, 24 hours
Hec50co GOFp53 cells [3] = test: Cell cycle assay; format: cell-based, human; conditions: 10 nM PTX alone, 24 hours
caspase-3 = test: Caspase-3 activity in Hec50co LOFp53 cells; format: cell-based, human; conditions: 5 nM or 10 nM PTX alone, 72 hours
[4] = system: Hec50co LOFp53 xenograft tumors; test: In vivo antitumor efficacy, human endometrial cancer xenograft model; parameters: species or system athymic Nu/Nu mice; conditions: five doses
Hec50co LOFp53 cells [5] = test: MTS cell viability assay, Hec50co LOFp53; format: cell-based; conditions: Homo sapiens, 72 h, read-out: cell viability
tubulin = tubulin (Sus scrofa, UniProt P02554); test: Fluorescence-based tubulin polymerization assay; format: biochemical; conditions: 3 μM
Hec50co GOFp53 cells [6] = test: MTS cell viability assay, Hec50co GOFp53; format: cell-based; conditions: Homo sapiens, 72 h, read-out: cell viability
KLE GOFp53 cells = test: MTS cell viability assay, KLE GOFp53; format: cell-based; conditions: Homo sapiens, 72 h, read-out: cell viability
caspase-9 = test: Caspase-9 activity in Hec50co LOFp53 cells; format: cell-based, human; conditions: 24 hours

Sequence of human Topo IIα (P11388 whole entry): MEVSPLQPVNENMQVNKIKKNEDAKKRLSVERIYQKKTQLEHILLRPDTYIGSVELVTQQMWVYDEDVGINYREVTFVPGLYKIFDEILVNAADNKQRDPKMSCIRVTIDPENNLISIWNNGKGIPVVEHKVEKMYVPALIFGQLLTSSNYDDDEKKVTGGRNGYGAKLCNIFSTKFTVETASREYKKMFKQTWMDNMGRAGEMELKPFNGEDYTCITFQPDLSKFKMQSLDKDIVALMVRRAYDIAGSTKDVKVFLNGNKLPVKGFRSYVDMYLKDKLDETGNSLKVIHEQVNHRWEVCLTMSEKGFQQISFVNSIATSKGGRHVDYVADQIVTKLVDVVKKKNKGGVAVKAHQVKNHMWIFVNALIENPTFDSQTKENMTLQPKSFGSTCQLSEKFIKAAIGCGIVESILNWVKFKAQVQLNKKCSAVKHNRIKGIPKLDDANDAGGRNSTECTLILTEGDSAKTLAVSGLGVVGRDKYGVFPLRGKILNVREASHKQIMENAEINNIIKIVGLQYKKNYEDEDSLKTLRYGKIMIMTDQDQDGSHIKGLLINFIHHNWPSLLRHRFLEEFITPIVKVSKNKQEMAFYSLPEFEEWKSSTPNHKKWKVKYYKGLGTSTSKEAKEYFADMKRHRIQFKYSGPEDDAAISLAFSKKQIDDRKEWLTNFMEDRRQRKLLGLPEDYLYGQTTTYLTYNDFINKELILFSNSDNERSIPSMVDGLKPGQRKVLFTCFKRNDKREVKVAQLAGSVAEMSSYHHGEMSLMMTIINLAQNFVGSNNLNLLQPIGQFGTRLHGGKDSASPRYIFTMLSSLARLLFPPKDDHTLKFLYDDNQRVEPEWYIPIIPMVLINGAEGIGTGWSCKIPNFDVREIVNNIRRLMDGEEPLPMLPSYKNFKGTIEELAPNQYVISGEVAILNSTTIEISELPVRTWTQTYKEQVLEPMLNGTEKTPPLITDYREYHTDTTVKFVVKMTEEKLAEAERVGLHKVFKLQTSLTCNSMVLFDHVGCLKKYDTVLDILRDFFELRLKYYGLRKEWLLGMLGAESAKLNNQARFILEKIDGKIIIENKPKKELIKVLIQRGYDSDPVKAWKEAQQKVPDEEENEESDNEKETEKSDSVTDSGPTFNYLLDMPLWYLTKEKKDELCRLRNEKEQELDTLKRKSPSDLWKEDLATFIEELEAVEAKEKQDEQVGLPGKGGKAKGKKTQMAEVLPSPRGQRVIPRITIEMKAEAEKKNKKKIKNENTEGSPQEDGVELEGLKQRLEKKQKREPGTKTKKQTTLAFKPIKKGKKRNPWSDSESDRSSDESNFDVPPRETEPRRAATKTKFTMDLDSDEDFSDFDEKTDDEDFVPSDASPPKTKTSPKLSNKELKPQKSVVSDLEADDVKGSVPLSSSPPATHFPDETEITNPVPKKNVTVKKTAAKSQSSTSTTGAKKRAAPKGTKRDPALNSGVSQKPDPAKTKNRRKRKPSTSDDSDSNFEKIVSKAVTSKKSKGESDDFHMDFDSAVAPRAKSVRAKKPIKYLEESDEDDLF
Sequence of tubulin (P02554 whole entry): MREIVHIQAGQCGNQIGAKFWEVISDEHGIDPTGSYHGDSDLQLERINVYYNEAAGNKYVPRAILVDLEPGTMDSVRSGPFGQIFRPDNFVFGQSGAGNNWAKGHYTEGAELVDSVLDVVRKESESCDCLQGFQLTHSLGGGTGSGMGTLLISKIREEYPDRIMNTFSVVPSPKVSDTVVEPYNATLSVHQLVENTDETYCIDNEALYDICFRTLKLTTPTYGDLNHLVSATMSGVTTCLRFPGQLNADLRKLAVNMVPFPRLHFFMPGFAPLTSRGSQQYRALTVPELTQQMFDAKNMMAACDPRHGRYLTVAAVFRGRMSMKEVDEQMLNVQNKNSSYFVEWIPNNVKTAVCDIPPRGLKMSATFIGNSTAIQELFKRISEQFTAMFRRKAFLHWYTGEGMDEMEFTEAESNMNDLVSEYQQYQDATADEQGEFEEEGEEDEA
Sequence of tubulin (P02550 whole entry partner): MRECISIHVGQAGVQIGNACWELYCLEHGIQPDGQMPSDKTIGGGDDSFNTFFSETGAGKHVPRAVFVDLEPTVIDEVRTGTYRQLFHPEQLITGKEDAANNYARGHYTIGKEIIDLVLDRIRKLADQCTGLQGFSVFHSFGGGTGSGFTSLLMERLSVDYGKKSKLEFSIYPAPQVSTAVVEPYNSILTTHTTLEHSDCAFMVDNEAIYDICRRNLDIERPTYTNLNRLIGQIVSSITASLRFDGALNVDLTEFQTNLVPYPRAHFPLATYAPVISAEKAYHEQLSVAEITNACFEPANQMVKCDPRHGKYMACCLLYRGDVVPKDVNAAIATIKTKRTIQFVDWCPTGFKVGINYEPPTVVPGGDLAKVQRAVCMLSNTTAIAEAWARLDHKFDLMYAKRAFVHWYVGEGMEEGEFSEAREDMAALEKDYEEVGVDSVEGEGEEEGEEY

SMILES: CC[C@@]1(O)C(=O)OCc2c1cc1n(c2=O)Cc2cc3ccccc3nc2-1 [CAM, camptothecin]
inhibition at 100 µM (human Topo I; read-out: Topo I inhibition): 52.6 ± 1.3%

Topo I inhibition (human Topo I): no activity
inhibition at 100 µM (human Topo IIα): 62.3 ± 17.1%
SMILES: O=C(O)c1cn(C2CC2)c2cc(N3CCNCC3)c(F)cc2c1=O [CIP, ciprofloxacin]
impact on microtubule assembly in cells (microtubule assembly): does not impact
benefit of CIP alone or in combination with PTX in comparison to PTX alone [1]: no benefits

inhibition at 100 µM (human Topo IIα): 96.3 ± 0.8%
SMILES: COc1cc([C@@H]2c3cc4c(cc3[C@@H](O[C@@H]3O[C@@H]5CO[C@@H](C)O[C@H]5[C@H](O)[C@H]3O)[C@H]3COC(=O)[C@H]23)OCO4)cc(OC)c1O [ETO, etoposide]

onset time of tubulin polymerization (tubulin): approximately 5 minutes
Topo I inhibition (human Topo I): no activity
inhibition at 100 µM (human Topo IIα): 8.3 ± 4.2%
SMILES: CC(=O)O[C@H]1C(=O)[C@@]2(C)[C@H]([C@H](OC(=O)c3ccccc3)[C@]3(O)C[C@H](OC(=O)[C@H](O)[C@@H](NC(=O)c4ccccc4)c4ccccc4)C(C)=C1C3(C)C)[C@]1(OC(C)=O)CO[C@@H]1C[C@@H]2O [PTX, paclitaxel]
cells in the G2/M phase (Hec50co LOFp53 cells [2]): 43.7 ± 0.5%
cells in the G2/M phase (Hec50co GOFp53 cells [3]): 57.3 ± 1.1%
caspase-3 activity vs untreated (caspase-3): significantly higher
average tumor volumes vs PBS group ([4]; 5 mg/kg PTX SC peritumoral): smaller than those in control mice injected with PBS, albeit not significantly
average weight of tumors vs PBS group, day 53 ([4]; 5 mg/kg PTX ± 5 mg/kg CIP2b SC peritumoral): not significantly different
viability at 0.01 µM (Hec50co LOFp53 cells [5]): 31.2 ± 4.1%
viability at 0.01 µM (Hec50co GOFp53 cells [6]): 17.9 ± 1.4%
viability at 0.01 µM (KLE GOFp53 cells): 63.5 ± 0.6%
caspase-9 activity vs untreated (caspase-9; 5 nM PTX): did not show a significant difference
caspase-9 activity vs untreated (caspase-9; 10 nM PTX): significant increase
